Measured values published in patent publication US9096643B2, “Cell-protective peptides and uses thereof” (priority 2010, dated 2015).
No end group written: not given here.

Columns and labels:
[1] = test system: neonatal rat CMs (heart cells); assay: Live/dead (CFDA/PI) staining of heart cells on coated surfaces; assay type: cell-based, rat (Sprague-Dawley); details: one and three days of incubation, FIG. 2
Description: The day before cells were ready to be seeded, the surfaces in the 12-well plates were sterilized by germicidal UV illumination overnight. The PBS surrounding the surfaces was then aspirated off and 100,000 live cells were pipetted onto each surface in 100 μL of culture media. These surfaces were left in the incubator for 20 to 30 min to allow the cells to begin to adhere, and then supplemented with 1 mL of warm CM media. The cells were cultivated for 8 days, with 100% culture media change every 2-3 days. The initial seeding density of heart cells on peptide-chitosan coated surfaces was 88 cells/mm^2. […] Each type of surface was created in triplicate.
Live dead staining was performed using 5-carboxyfluorescein diacetate acetoxymethly ester (CFDA, Invitrogen), which stains live cells green, and with propidium iodide (PI, Invitrogen), which stains dead cells red, according to the manufacturer's instruction. The samples were incubated in 10 μM of CFDA and 75 μL/mL of PI in PBS for 45 min at 37° C. Three different surfaces were analyzed for each type of sample (N=3) and a total of five images were taken for each surface to get a full representation of the viability of the cells on a surface. In order to quantify the viability, the numbers of live and dead cells were counted separately using the cell counter plug-in on ImageJ.

[2] = test system: neonatal rat CMs (heart cells); assay: Preliminary 3D cell encapsulation studies in hydrogels; assay type: cell-based, rat (Sprague-Dawley); details: encapsulated, 1 to 4 days of 3D culture
Description: The lyophilized form of the peptide-modified Az-chitosan was dissolved in sterile 0.9% saline at 12 mg/mL. CMs (2.5×10^6) were suspended in 15 μL of CM culture media with 30% serum for 15 minutes on ice. These cells were then suspended in 35 μL of the hydrogel and crosslinked in the transwell inserts of the 96 well plates. The cells were cultivated in the CM culture medium with 10% FBS for up to 4 days.

Lewis rats = details: rat, in vivo, sc
Description: Cardiac constructs were made by encapsulation of neonatal Lewis rat cardiomyocytes in Az-chitosan-QHREDGS or Az-chitosan-RGDS. A total of 2×10^6 cardiomyocytes were resuspended in 15 μL of ice cold cardiomyocytes medium with 30% FBS for at least 10 min. These cells were then encapsulated in 100 μL of the hydrogel in transwell plates and constructs (2 mm thick and 6 mm in diameter) were produced. A total of 8 samples were made for each type of hydrogel, and 4 from each group were implanted, while the other 4 were retained as in vitro controls. Samples were cultured at 37° C. for 5 d before they were implanted in vivo.
Cardiac constructs described above were inserted subcutaneously into the abdomen of Lewis rats. Four samples were implanted for each type of hydrogel. […] Quantification of total SMA and Factor VIII was performed using ImageScope v10 (Aperio Technologies) and mean intensities were averaged for six fields for each sample and normalized to total area. […] Apoptosis was assessed using a TUNEL assay (Roche Applied Science) following the manufacturer's standard protocol.

[3] = test system: Rat neonatal cardiomyocytes; assay: ATP assay (CellTiter-Glo) in serum-starved cardiomyocytes; assay type: cell-based; details: 500 μM peptide, 1 d
Description: Rat neonatal cardiomyocytes were incubated with PBS (control), 500 μM QHREDGS, scrambled QHREDGS peptide, GRGDSP peptide or 400 nM ang 1 or ang2 in DMEM/0.5% BSA/cytosine-β-D-arabinofuranoside (37° C., 5% CO2, 1 d). ATP levels were quantified using the CellTiter-Glo Luminescent Assay (Promega) as per manufacturer's instructions (N=6/group). Luminescence was measured using a Wallac 1420 microplate reader.

human iPS cells = assay: Teratoma formation after grafting into hind-limb muscles of NOD-SCID mice; assay type: in vivo; details: 10 passages in 50 μM, grafted into NOD-SCID mice
[4] = test system: Human ESC-derived cardiac cells (Hes2); assay: Total cell number of monolayer human ESC-derived cardiac cells; assay type: cell-based; details: 50 μM, 10 days, vs PBS control and DGQESHR
Description: (§1) Human ESC-derived cardiac cell culture, were derived from Day 20 EBs, consisting of greater than 50% cardiomyocytes obtained by directed differentiation of human ES (Hes2) cells as described by Yang et al. (Nature 453, 524-528 (2008)). EBs were dissociated using Collagenase I (Invitrogen) for 2 hrs and 0.05% Trypsin-EDTA (Invitrogen) for 5 min and plated at 40000 cells/cm^2 onto 0.2% gelatin-coated plates in Stempro 34 medium supplemented with VEGF (10 ng/ml) and DKK1 (150 ng/ml). Cells were cultured in the presence of 50 μM QHREDGS, 50 μM DGQESHR (Biomatik) or PBS until they formed a beating monolayer, around 10 days. Peptides were replenished during media changes every 3 days. 100 μM H2O2 (Sigma, dissolved in PBS) was added to culture media for 10 min, washed, and analyzed immediately for CFDA-Live/PI-Dead. Live cells were counted using the cell counter plug in for ImageJ. 0.5 μM or 2.5 μM taxol (Sigma, dissolved in DMSO) was added to culture media for 24 hrs, and the extent of apoptosis was analyzed immediately using the Apo-ONE Homogeneous Caspase Assay (Promega), or TUNEL assay (Roche) as described above. A PBS control was used for H2O2 and DMSO control was used for taxol.

[5] = test system: Human ESC-derived cardiac cells (Hes2); assay: H2O2 exposure, CFDA-Live/PI-Dead of human ESC-derived cardiac cells; assay type: cell-based; details: 50 μM, 100 μM H2O2 10 min, FIG. 19
Description: as §1

Az-chitosan-QHREDGS: QHREDGS peptide covalently conjugated to Az-chitosan by EDC chemistry (also: covalently conjugated to Az-chitosan by EDC chemistry, site not given here)
cell viability (live/dead) [1]: significantly greater cell viability
heart cell survival and elongation in 3D hydrogel [2]: heart cell elongation
animal health / external signs of inflammation (Lewis rats): no external signs of inflammation

QHREDGS (angiopoietin 1 peptide)
cardiac myocyte ATP levels [3]: substantially increased
teratoma formation (human iPS cells): continued to form teratomas
increase in number of cardiac cells/well [4]: greater than 2 fold
viability of cardiac cells (% Live-CFDA/Dead-PI) [5]: enhanced viability
